Experiments:
[1] = tested on: asynchronous 3D7-A10 parasite cultures; assay: Standard 72-h exposure asexual blood stage susceptibility assay (IC50^72h); assay type: cell-based, Plasmodium falciparum; conditions: read-out: Overall (72hr assay) Mean IC50 (IC50^72h); 72-h exposure, asynchronous 3D7-A10
[2] = Solubility Assay (UV/vis spectroscopy, filter method); conditions: 1 × PBS pH 7.4, 500 μM, UV/vis 280–360 nm minus 800 nm
[3] = tested on: synchronized Plasmodium falciparum parasites; assay: Microscopical study of cell morphology after 8-h exposures (Figure S4); assay type: cell-based; conditions: 3× the IC50^8h of the most sensitive life stage, 8-h intervals

| Compound | IC50 [1] [nM] | Ratio fil./std. (absorbance filtrate/standard) [2] | digestive vacuole morphology [3] | most susceptible stage by cell morphology [3] |
| --- | --- | --- | --- | --- |
| Ferroquine [reference compound] | 3.5 |  |  |  |
| CC(C)(C)c1ccc2c(c1)CN(Cc1ccc(Cl)cc1)CO2 [MMV000442] | 37.2 | 0.74 |  |  |
| CN(C)Cc1ccc(-c2cc3c(-c4ccc(CN(C)C)cc4)ccnc3[nH]2)cc1.O=C(O)C(F)(F)F [MMV022224] | 199 |  | without displaying swollen vacuoles | early and late trophozoite stages |
| CC(C)(C)NCc1cc(Nc2ccnc3cc(Cl)ccc23)c2c(c1O)CCCC2 [Naphtoquine, Naphthoquine, reference compound] | 3.2 |  |  |  |

Reference: paper PMC7031696 (Cell chemical biology, 2019)
